A short description of this assay: Antiplatelet activity in New Zealand rabbit platelet-rich plasma assessed as inhibition of ADP-induced aggregation treated for 5 mins prior to ADP-challenge measured after 1 to 6 mins by spectrophotometric analysis. It is filed as functional, cell-free. Conditions: Oryctolagus cuniculus.

On to `CCCCN1C(=O)COc2cc(CN3CCN(c4ccccc4)CC3)ccc21`, for which the IC50 came to 15.5 µM.

With `CCCCN1C(=O)COc2cc(CN3CCN(c4ccccc4F)CC3)ccc21`, the IC50 was found to be 17.1 µM.

`O=C1COc2cc(CN3CCN(c4ccccc4F)CC3)ccc2N1Cc1ccccc1`: the IC50 was 15.3 µM.

As for `CCCN1C(=O)COc2cc(CN3CCN(Cc4ccccc4)CC3)ccc21`, the IC50 was 9.2 µM.

In the case of `CCN1C(=O)COc2cc(CN3CCOCC3)ccc21`, the IC50 stood at 10.5 µM.

Regarding `CC(C)N1C(=O)COc2cc(CN3CCOCC3)ccc21`, the IC50 stood at 11 µM.

As for `CCCN1C(=O)COc2cc(CN3CCOCC3)ccc21`, the IC50 was found to be 9.63 µM.

Consider `CCCCN1C(=O)COc2cc(CN3CCOCC3)ccc21`, for which the IC50 worked out at 14.4 µM.

On to `O=C1COc2cc(CN3CCOCC3)ccc2N1Cc1ccccc1`, for which the IC50 worked out at 12.2 µM.

For the compound `CCN1C(=O)COc2cc(CN3CCN(c4ccccc4)CC3)ccc21`, the IC50 was 10.1 µM.

In the case of `CC(C)N1C(=O)COc2cc(CN3CCN(c4ccccc4)CC3)ccc21`, the IC50 is 10.8 µM.

As to `CCCN1C(=O)COc2cc(CN3CCN(c4ccccc4)CC3)ccc21`, the IC50 turned out to be 12.8 µM.

For the compound `O=C1COc2cc(CN3CCN(c4ccccc4)CC3)ccc2N1Cc1ccccc1`, the IC50 was 13.9 µM.

With `CCN1C(=O)COc2cc(CN3CCN(c4ccc(F)cc4)CC3)ccc21`, the IC50 was determined as 11.1 µM.

Regarding `CC(C)N1C(=O)COc2cc(CN3CCN(c4ccc(F)cc4)CC3)ccc21`, the IC50 turned out to be 13.3 µM.

Take `CCCN1C(=O)COc2cc(CN3CCN(c4ccc(F)cc4)CC3)ccc21`: the IC50 came out at 11.4 µM.

Regarding `CCCCN1C(=O)COc2cc(CN3CCN(c4ccc(F)cc4)CC3)ccc21`, the half-inhibitory concentration (IC50) came to 15.2 µM.

In the case of `O=C1COc2cc(CN3CCN(c4ccc(F)cc4)CC3)ccc2N1Cc1ccccc1`, the IC50 stood at 19.4 µM.

For `CCN1C(=O)COc2cc(CN3CCN(c4ccccc4F)CC3)ccc21`, the IC50 was found to be 12.7 µM.

With `CC(C)N1C(=O)COc2cc(CN3CCN(c4ccccc4F)CC3)ccc21`, the IC50 was found to be 13.6 µM.

For the compound `CCCN1C(=O)COc2cc(CN3CCN(c4ccccc4F)CC3)ccc21`, the IC50 turned out to be 13.8 µM.

With `CC(=O)Oc1ccccc1C(=O)O` [ASPIRIN], the IC50 was found to be 7.07 µM.

As for `Clc1ccccc1CN1CCc2sccc2C1` [TICLOPIDINE], the IC50 was determined as 3.72 µM.
